Measured values taken from US11000033B2, “Ketone or oxime compound, and herbicide” (NISSAN CHEMICAL CORPORATION, priority 2014, dated 2021).

Columns and labels:
Type in all cases: in vivo
Veronica persica [1] = test: Test Example 4: herbicidal effect by soil treatment (symbol R); details: application herbicide amount 320 g/ha
Outline: (§1)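 Seeds were sown in sterilized diluvial soil, covered with about 1.5 cm of soil, and the soil surface was sprayed with a water-diluted emulsion of the compound at a predetermined rate. Plants grew in a greenhouse at 25° C. to 30° C.; effects were scored visually 3 weeks after application.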

beet [2] = test: Test Example 5: effect on crop by foliage application, plastic box (symbol f); details: 320 g/ha, 3 weeks after application
Outline: (§2)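 Greenhouse culture at 25° C. to 30° C. followed spot-like sowing into sterilized diluvial soil, with seed covered by roughly 1.5 cm of soil.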

Abutilon theophrasti [3] = test: Test Example 5: herbicidal effect by foliage application, plastic box (symbol M); details: 320 g/ha, 3 weeks after application
Outline: (§3)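 Greenhouse foliar test: seedlings at 14 days, grown 25° C. to 30° C. in sterilized diluvial soil; compound applied as an aqueous dilution of an emulsion; response read 3 weeks after spraying.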

Amaranthus retroflexus = test: Test Example 5: herbicidal effect by foliage application, plastic box (symbol N); details: 320 g/ha, 3 weeks after application
Outline: as §3

soybean = test: Test Example 5: effect on crop by foliage application, plastic box (symbol d); details: 320 g/ha, 3 weeks after application
Outline: as §2

Apera spica-venti = test: Test Example 5: herbicidal effect by foliage application, plastic box (symbol L); details: 320 g/ha, 3 weeks after application
Outline: as §3

Digitaria ciliaris [4] = test: Test Example 4: herbicidal effect by soil treatment (symbol F); details: application herbicide amount 320 g/ha
Outline: as §1

Digitaria ciliaris [5] = test: Test Example 5: herbicidal effect by foliage application, plastic box (symbol F); details: 320 g/ha, 3 weeks after application
Outline: as §3

[6] = tested on: Echinochloa crus-galli var. crus-galli; test: Test Example 3: herbicidal effect by foliage application, Wagner pot (symbol H); details: application herbicide amount 320 g/ha
Outline: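 Scoring took place 3 weeks after application, using fixed criteria. Plants had been raised from seed for 14 days at 25 to 30 °C in submerged alluvial soil before a diluted emulsion of the test compound was sprayed uniformly on the leaves.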

rice plant = test: Test Example 5: effect on crop by foliage application, plastic box (symbol b); details: 320 g/ha, 3 weeks after application
Outline: as §2

Avena fatua = test: Test Example 4: herbicidal effect by soil treatment (symbol I); details: application herbicide amount 320 g/ha
Outline: as §1

Veronica persica [7] = test: Test Example 5: herbicidal effect by foliage application, plastic box (symbol R); details: 320 g/ha, 3 weeks after application
Outline: as §3

Alopecurus myosuroides = test: Test Example 4: herbicidal effect by soil treatment (symbol J); details: application herbicide amount 320 g/ha
Outline: as §1

Abutilon theophrasti [8] = test: Test Example 4: herbicidal effect by soil treatment (symbol M); details: application herbicide amount 320 g/ha
Outline: as §1

beet [9] = test: Test Example 4: effect on crop by soil treatment (symbol f); details: application herbicide amount 320 g/ha
Outline: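 Plants are raised in a greenhouse (25° C. to 30° C.) from spot-sown seed, which sits under about 1.5 cm of sterilized diluvial soil in a box shared with weed species.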

[10] = tested on: Echinochloa oryzacola Vasing.; test: Test Example 2: herbicidal activity, application during weed generation in submerged conditions (symbol A); details: Table 23; application herbicide amount 320 g/ha; grade 0-5 by criteria of Test Example 1
Outline: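 Read-out: herbicidal effect on each species rated on a visual scale 3 weeks after treatment. Plants were raised together from seed in flooded alluvial soil (4 cm water) at 25° C. to 30° C. and treated at one to two leaves by water-surface application of diluted emulsion.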

Compound	R (Veronica persica) herbicidal effect grade (Veronica persica [1])	f: beet, effect on crop grade (beet [2])	M: Abutilon theophrasti, herbicidal effect grade (Abutilon theophrasti [3])	N: Amaranthus retroflexus, herbicidal effect grade (Amaranthus retroflexus)	d: soybean, effect on crop grade (soybean)	L: Apera spica-venti, herbicidal effect grade (Apera spica-venti)	F (Digitaria ciliaris) herbicidal effect grade (Digitaria ciliaris [4])	F: Digitaria ciliaris, herbicidal effect grade (Digitaria ciliaris [5])	herbicidal effect on H (Echinochloa crus-galli var. crus-galli), grade 0-5 [6]	b: directly sowed rice plant, effect on crop grade (rice plant)	I (Avena fatua) herbicidal effect grade (Avena fatua)	R: Veronica persica, herbicidal effect grade (Veronica persica [7])	J (Alopecurus myosuroides) herbicidal effect grade (Alopecurus myosuroides)	M (Abutilon theophrasti) herbicidal effect grade (Abutilon theophrasti [8])	f (beet) effect on crop grade (beet [9])	Herbicidal effect grade, A: Echinochloa oryzacola Vasing. [10]
CON=C(CC1CC(O)=C(c2c(C)cc(C)cc2C)C1=O)C(C)C (stereo not shown) [1-048]	0 (Herbicidal ratio of 5% or lower (almost no effect))	1 (Herbicidal ratio of 5% or higher and lower than 20%)	3 (Herbicidal ratio of 40% or higher and lower than 70%)	1 (Herbicidal ratio of 5% or higher and lower than 20%)	0 (Herbicidal ratio of 5% or lower (almost no effect))	5 (Herbicidal ratio of 90% or more (almost completely withered))	5 (Herbicidal ratio of 90% or more (almost completely withered))	4 (Herbicidal ratio of 70% or higher and lower than 90%)	5 (Herbicidal ratio of 90% or more (almost completely withered))	5 (Herbicidal ratio of 90% or more (almost completely withered))	1 (Herbicidal ratio of 5% or higher and lower than 20%)	3 (Herbicidal ratio of 40% or higher and lower than 70%)	5 (Herbicidal ratio of 90% or more (almost completely withered))	3 (Herbicidal ratio of 40% or higher and lower than 70%)	0 (Herbicidal ratio of 5% or lower (almost no effect))	5 (Herbicidal ratio of 90% or more (almost completely withered))
CC(CC1CC(O)=C(c2c(C)cc(C)cc2C)C1=O)=NOC(C)C (stereo not shown) [1-052]	0 (Herbicidal ratio of 5% or lower (almost no effect))	0 (Herbicidal ratio of 5% or lower (almost no effect))	3 (Herbicidal ratio of 40% or higher and lower than 70%)	0 (Herbicidal ratio of 5% or lower (almost no effect))	4 (Herbicidal ratio of 70% or higher and lower than 90%)	5 (Herbicidal ratio of 90% or more (almost completely withered))	5 (Herbicidal ratio of 90% or more (almost completely withered))	5 (Herbicidal ratio of 90% or more (almost completely withered))	5 (Herbicidal ratio of 90% or more (almost completely withered))	5 (Herbicidal ratio of 90% or more (almost completely withered))	4 (Herbicidal ratio of 70% or higher and lower than 90%)	3 (Herbicidal ratio of 40% or higher and lower than 70%)	5 (Herbicidal ratio of 90% or more (almost completely withered))	4 (Herbicidal ratio of 70% or higher and lower than 90%)	0 (Herbicidal ratio of 5% or lower (almost no effect))	5 (Herbicidal ratio of 90% or more (almost completely withered))
CC(CC1CC(O)=C(c2c(C)cc(C)cc2C)C1=O)=NOC(C)(C)C (stereo not shown) [1-053]	0 (Herbicidal ratio of 5% or lower (almost no effect))	0 (Herbicidal ratio of 5% or lower (almost no effect))	0 (Herbicidal ratio of 5% or lower (almost no effect))	0 (Herbicidal ratio of 5% or lower (almost no effect))	3 (Herbicidal ratio of 40% or higher and lower than 70%)	3 (Herbicidal ratio of 40% or higher and lower than 70%)	5 (Herbicidal ratio of 90% or more (almost completely withered))	3 (Herbicidal ratio of 40% or higher and lower than 70%)	5 (Herbicidal ratio of 90% or more (almost completely withered))	5 (Herbicidal ratio of 90% or more (almost completely withered))	0 (Herbicidal ratio of 5% or lower (almost no effect))	2 (Herbicidal ratio of 20% or higher and lower than 40%)	3 (Herbicidal ratio of 40% or higher and lower than 70%)	1 (Herbicidal ratio of 5% or higher and lower than 20%)	0 (Herbicidal ratio of 5% or lower (almost no effect))	4 (Herbicidal ratio of 70% or higher and lower than 90%)
CCCCCCCON=C(C)CC1CC(O)=C(c2c(C)cc(C)cc2C)C1=O (stereo not shown) [1-054]	0 (Herbicidal ratio of 5% or lower (almost no effect))	0 (Herbicidal ratio of 5% or lower (almost no effect))	0 (Herbicidal ratio of 5% or lower (almost no effect))	0 (Herbicidal ratio of 5% or lower (almost no effect))	0 (Herbicidal ratio of 5% or lower (almost no effect))	3 (Herbicidal ratio of 40% or higher and lower than 70%)	5 (Herbicidal ratio of 90% or more (almost completely withered))	2 (Herbicidal ratio of 20% or higher and lower than 40%)	5 (Herbicidal ratio of 90% or more (almost completely withered))	4 (Herbicidal ratio of 70% or higher and lower than 90%)	0 (Herbicidal ratio of 5% or lower (almost no effect))	0 (Herbicidal ratio of 5% or lower (almost no effect))	1 (Herbicidal ratio of 5% or higher and lower than 20%)	0 (Herbicidal ratio of 5% or lower (almost no effect))	0 (Herbicidal ratio of 5% or lower (almost no effect))	3 (Herbicidal ratio of 40% or higher and lower than 70%)
